Assay [1] has as its system E. coli ATCC 25922. The assay can be described thus: Antibacterial susceptibility testing, broth microdilution (MIC). Format: cell-based, Escherichia coli. The conditions noted are these: for MIC: Escherichia coli, ATCC25922, read-out: Minimum inhibitory concentration-MIC. The protocol:
(§1) Bacterial strains and growth conditions. Five reference strains, Staphylococcus aureus ATCC 25923, Bacillus subtilis ATCC 6633, E. faecalis ATCC 29212, Escherichia coli ATCC 25922 and Pseudomonas aeruginosa ATCC 27853, and three multidrug-resistant isolates from environment, S. aureus B1 (a MRSA isolated from public buses), Enterococcus faecalis W1 (a VRE isolated from river water) and E. coli G1 (isolated from seagull feces) were used. Bacteria were grown overnight at 37° C. in Mueller-Hinton agar (MH—BioKar diagnostics, Allonne, France) prior to obtain be used in the subsequently described bioassays.
(§2) Antibacterial susceptibility testing. The minimum inhibitory concentration (MIC) values of the compounds of FIGS. 1D, 1E, 1G, 1H (equation i-iv) and 11 (equations v-x) were determined, in particular, by a broth microdilution technique, following the recommendations of the Clinical and Laboratory Standards Institute. Stock solutions of 10 mg/ml in DMSO were used to prepare in-test concentrations ranging from 2 to 256 μg/ml. Ciprofloxacin in the concentration range from 0.03125 to 16 μg/ml was used, in particular, as control drug in the experiment. The MIC was defined as the lowest concentration of compound that has inhibited the visible growth. The minimum bactericidal concentration (MBC) was determined by spreading on MH plates, 10 μL collected from the wells corresponding to the MIC and to higher concentrations, with further incubation for 24 h at 37° C.; the lowest concentration at which no growth occurred on MH was defined as the MBC.

Assay [2] has as its system S. aureus ATCC 25923. Nature of the assay: Antibacterial susceptibility testing, broth microdilution (MIC/MBC). The conditions noted are these: for MIC: Staphylococcus aureus, ATCC25923, read-out: Minimum inhibitory concentration-MIC. Format: cell-based, Staphylococcus aureus. The protocol: as §1, §2
Assay [3] relates to S. aureus B1 (MRSA). The assay is described as above. Format: cell-based, Staphylococcus aureus. The note with it: for MIC: Staphylococcus aureus, read-out: Minimum inhibitory concentration-MIC. The method, then: as §1, §2
The test system of assay [4] is E. faecalis W1 (VRE). The assay is described as above. The conditions noted are these: for MIC: Enterococcus faecalis, read-out: Minimum inhibitory concentration-MIC. Format: cell-based, Enterococcus faecalis. The protocol:
as §1, §2

Assay [5] deals with E. faecalis ATCC 29212. Described as above. Format: cell-based, Enterococcus faecalis. The note with it: for MIC: Enterococcus faecalis, ATCC29212, read-out: Minimum inhibitory concentration-MIC. The protocol: as §1, §2
In assay [6] the test system is B. subtilis ATCC 6633. Described as above. The conditions noted are these: for MIC: Bacillus subtilis, ATCC6633, read-out: Minimum inhibitory concentration-MIC. Format: cell-based, Bacillus subtilis. The method, then: as §1, §2
Assay [7] relates to P. aeruginosa ATCC 27853. The assay can be described thus: Antibacterial susceptibility testing, broth microdilution (MIC). The assay is classed as cell-based, Pseudomonas aeruginosa. The note with it: for MIC: Pseudomonas aeruginosa, ATCC27853, read-out: Minimum inhibitory concentration-MIC. The method, then:
as §1, §2
(In broth dilution the organism is exposed to a series of concentrations in liquid medium.)

The test system of assay [8] is S. aureus B1. Nature of the assay: Broth microdilution Checkerboard method. The assay is classed as cell-based, Staphylococcus aureus. The conditions noted are these: Staphylococcus aureus. The protocol:
Synergistic studies between compounds and antibiotics. A screening susceptibility test to assess the combined effect between the compounds and antibiotics was conducted using the disc diffusion method on MH, against three multidrug-resistant isolates, E. coli G1, S. aureus B1 and E. faecalis W1. A set of antibiotic discs (Oxoid, Basingstoke, England) was selected based on the resistance of the isolates towards those antibiotics. […] The fractional inhibitory concentration (FIC) was calculated as follows: FIC of drug A (FIC A)=MIC of drug A in combination/MIC of drug A alone, and FIC of drug B (FIC B)=MIC of drug B in combination/MIC of drug B alone. The FIC index (ΣFIC), calculated as the sum of each FIC, was interpreted as follows: ΣFIC 0.5, synergy; 0.5<ΣFIC 4, no interaction; 4<ΣFIC, antagonism.

Assay [9] deals with S. aureus B1. The assay can be described thus: Synergy screening with antibiotic discs, disc diffusion method. The note with it: not in combination; MRSA isolate S. aureus B1. Format: cell-based, Staphylococcus aureus. The protocol: Synergistic studies between compounds and antibiotics. A screening susceptibility test to assess the combined effect between the compounds and antibiotics was conducted using the disc diffusion method on MH, against three multidrug-resistant isolates, E. coli G1, S. aureus B1 and E. faecalis W1. A set of antibiotic discs (Oxoid, Basingstoke, England) was selected based on the resistance of the isolates towards those antibiotics. Based on the results of the previous assay, an unexpected synergetic effect between fiscalin C (see FIG. 1I, equation v) and oxacillin (Sigma-Aldrich, St. Louis, Mo., USA) was determined using, in particular, a broth microdilution Checkerboard method against the MRSA isolate (S. aureus B1). The fractional inhibitory concentration (FIC) was calculated as follows: FIC of drug A (FIC A)=MIC of drug A in combination/MIC of drug A alone, and FIC of drug B (FIC B)=MIC of drug B in combination/MIC of drug B alone. The FIC index (ΣFIC), calculated as the sum of each FIC, was interpreted as follows: ΣFIC 0.5, synergy; 0.5<ΣFIC 4, no interaction; 4<ΣFIC, antagonism.
In general terms: A growth-free zone around the sample is the usual read-out of agar diffusion tests.

Like-named read-outs stand apart in the source and are kept apart here.

With `CC(C)[C@]12NC(=O)[C@H](Cc3c1[nH]c1ccccc31)n1c2nc2ccccc2c1=O` [FIG. 1D, sartorymensin], the “Minimum inhibitory concentration-MIC” value in assay [1] is >256 µg/mL; in assay [2] it was > 256 µg/mL; in assay [3] (S. aureus B1 (MRSA)), >256 µg/mL; in assay [4] (E. faecalis W1 (VRE)), >256 µg/mL; in assay [5], >256 µg/mL; in assay [6], >256 µg/mL. For the same molecule, the “Minimum inhibitory concentration-MIC” value in [7] is >256 µg/mL.
In the case of `CC(C)[C@@H]1NC(=O)[C@@H](C[C@]2(O)c3ccccc3N3C(=O)[C@H](C)N[C@H]32)n2c1nc1ccccc1c2=O` [FIG. 1I (eq. vii), fiscalin A], the “Minimum inhibitory concentration-MIC” value in assay [1], in [2], in [3] (S. aureus B1 (MRSA)), in assay [4] (E. faecalis W1 (VRE)), in assay [5] and in [6] was >256 µg/mL each time. In assay [7], the “Minimum inhibitory concentration-MIC” value is >256 µg/mL.
For tryptoquivaline O [FIG. 1H (eq. iv)], the “Minimum inhibitory concentration-MIC” value in assay [1], in assay [2], in assay [3] (S. aureus B1 (MRSA)), in [4] (E. faecalis W1 (VRE)), in assay [5] and in assay [6] was >256 µg/mL in each case. Moreover, the “Minimum inhibitory concentration-MIC” value in assay [7] was >256 µg/mL.
As to `CC(=O)O[C@H](c1nc2ccccc2c(=O)n1[C@@H]1C[C@]2(OC1=O)c1ccccc1N1C(=O)C(C)(C)N(O)[C@H]12)C(C)C` [FIG. 1E, tryptoquivaline], the MIC in [1], in assay [2], in assay [3] (MRSA), in assay [4] (VRE), in [5] and in [6] was > 256 µg/mL in each case. Further, in assay [7], the MIC is > 256 µg/mL.
For `C[C@H]1C(=O)N2c3ccccc3[C@@]3(C[C@@H](n4cnc5ccccc5c4=O)C(=O)O3)[C@@H]2N1O` [FIG. 1H (eq. ii), tryptoquivaline H], the “Minimum inhibitory concentration-MIC” value in [1] is >256 µg/mL; in assay [2] it was > 256 µg/mL; in assay [3] (S. aureus B1 (MRSA)), >256 µg/mL; in [4] (E. faecalis W1 (VRE)), >256 µg/mL; in [5], >256 µg/mL; in assay [6], >256 µg/mL. Moreover, the “Minimum inhibitory concentration-MIC” value in [7] was >256 µg/mL.
Turning to `CC1(C)S[C@@H]2[C@H](NC(=O)[C@H](N)c3ccccc3)C(=O)N2[C@H]1C(=O)O` [Ampicillin, ampicillin, reference compound], the MIC in assay [8] (B1) worked out at 128 µg/mL. Besides, in assay [9], the “zone of inhibition on agar plates” value was “neither fiscalin C, ampicillin or oxacillin produced any zone of inhibition”.
For the molecule epi-neofiscalin A [FIG. 1I (eq. x)], the “Minimum inhibitory concentration-MIC” value in [1], in [2], in assay [3] (S. aureus B1 (MRSA)), in assay [4] (E. faecalis W1 (VRE)), in assay [5] and in assay [6] was >256 µg/mL throughout. Further, the “Minimum inhibitory concentration-MIC” value in [7] was >256 µg/mL.
`O=C1OC2(CC1n1cnc3ccccc3c1=O)C(=O)Nc1ccccc12` (stereo not drawn) [FIG. 1G, 3′-(4oxoquinazolin-3yl) spiro [1H-indole-3,5′-oxolane]-2,2′-dione]: the MIC in assay [1], in [2], in assay [3] (S. aureus B1 (MRSA)), in assay [4] (E. faecalis W1 (VRE)), in assay [5] and in [6] was > 256 µg/mL throughout. The MIC in assay [7] was > 256 µg/mL.
In the case of `C[C@@H]1N[C@@H]2N(C1=O)c1ccccc1[C@@]21C[C@@H](n2cnc3ccccc3c2=O)C(=O)O1` [FIG. 1H (eq. iii), tryptoquivaline F], the “Minimum inhibitory concentration-MIC” value in assay [1], in assay [2], in assay [3] (S. aureus B1 (MRSA)), in [4] (E. faecalis W1 (VRE)), in assay [5] and in [6] was >256 µg/mL in each case. The “Minimum inhibitory concentration-MIC” value in assay [7] is >256 µg/mL.
As for `Cc1onc(-c2ccccc2)c1C(=O)N[C@@H]1C(=O)N2[C@@H]1SC(C)(C)[C@@H]2C(=O)O` [Oxacillin, oxacillin, reference compound], in assay [8] (drug alone, S. aureus B1, read-out: MIC), the MIC came out at 128 µg/mL. In assay [9], the “zone of inhibition on agar plates” value is listed as “neither fiscalin C, ampicillin or oxacillin produced any zone of inhibition”.
`CC(C)[C@H]1NC(=O)[C@@H](C[C@]2(O)c3ccccc3N3C(=O)[C@H](C)N[C@H]32)n2c1nc1ccccc1c2=O` [FIG. 1I (eq. viii), epi-fiscalin A]: the “Minimum inhibitory concentration-MIC” value in [1], in assay [2], in [3] (S. aureus B1 (MRSA)), in assay [4] (E. faecalis W1 (VRE)), in assay [5] and in assay [6] was >256 µg/mL each time. Moreover, the “Minimum inhibitory concentration-MIC” value in assay [7] was >256 µg/mL.
On to `CC1(C)C(=O)N2c3ccccc3C3(CC(n4cnc5ccccc5c4=O)C(=O)O3)C2N1O` (stereo not drawn) [FIG. 1H (eq. i), tryptoquivaline L], for which the “Minimum inhibitory concentration-MIC” value is >256 µg/mL in assay [1]; > 256 µg/mL in assay [2]; >256 µg/mL in assay [3] (S. aureus B1 (MRSA)); >256 µg/mL in assay [4] (E. faecalis W1 (VRE)); >256 µg/mL in assay [5]; >256 µg/mL in assay [6]. Further, the “Minimum inhibitory concentration-MIC” value in [7] is >256 µg/mL.
For epi-fiscalin C [FIG. 1I (eq. vi)], the “Minimum inhibitory concentration-MIC” value in [1], in assay [2], in [3] (S. aureus B1 (MRSA)), in [4] (E. faecalis W1 (VRE)), in assay [5] and in [6] was >256 µg/mL in each case. In addition, the “Minimum inhibitory concentration-MIC” value in assay [7] was >256 µg/mL.

Source of the values: US20180185370A1, “PYRAZINOQUINAZOLINONE DERIVATIVES WITH ANTIBACTERIAL ACTIVITY, METHODS AND USES THEREOF” (UNIVERSIDADE DO PORTO, priority 2015, published 2018).
